Experimental data published in patent publication US10512656B2, “Compositions and methods for the treatment of lysosomal storage disorders and disorders characterized by lysosomal dysfunction” (Baylor College of Medicine, priority 2016, dated 2019).

Legend:
Akt = Akt activity in HeLa cells, time course immunoblot; format: cell-based, human
Method: FIG. 14. Akt phosphorylates TFEB at Ser467. […] Dashed boxes (upper row) show the location of the higher power inserts (lower row). (b) Subcellular fractionation of HeLa/TFEB cells incubated with the same kinase inhibitors. (c) Multi-alignment of TFEB amino-acid sequences from the following species: Ac, Anolis carolensis; Bt, Bos taurus; Dr, Danio rerio; Fc, Felix catus; Gg, gallus gallus; Hs, Homo sapiens; La, Loxodonta africana; Mm, Mus musculus; Rn, Rattus Norvegicus; Sh, Sarcophilus harrisii; Sp, Strongylocentrotus purpuratus; XI, Xenopus laevis. A consensus logo of Akt phosphorylation sites (generated at weblogo.berkeley.edu/logo.cgi) is aligned with TFEB sequences. Position 467 refers to the human protein sequence. (d) Subcellular localization of TFEB and TFEB(S467A). (e) Expression analysis of lysosomal and autophagy genes in HeLa cells transfected with TFEB or TFEB(S467A). […]
Brain tissue and cultured cells were collected and lysed in RIPA buffer (50 mM Tris-HCl, ph 7.4, 1% NP40, 0.5% Na-deoxycholate, 0.1% SDS, 150 mM NaCl, 2 mM EDTA and 50 mM NaF) including a cocktail of protease (Roche) and phosphatase (SIGMA) inhibitors. Protein concentrations were measured with the bicinchoninic acid protein assay kit (Pierce, Rockford, Ill.), using bovine serum albumin as standard. […] Western blot images were acquired by LAS 4000 (GE Healthcare) and quantified using ImageJ. […]

Cln3^Δex7-8 mice [1] = experiment: Astrocytosis, GFAP immunohistochemistry; format: in vivo, mouse; settings: for decrease of GFAP immunoreactivity: 12 months of age
Method: Brains were subsequently removed and postfixed overnight. Before sectioning, the brains were cryoprotected in a solution containing 30% sucrose in Tris-buffered saline (TBS: 50 mM Tris, pH 7.6). Consecutive […] floating coronal sections were collected in 96-well plates. Series of sections were then stained with primary antisera against CD68 or GFAP, followed by either rabbit anti-rat (VectorLab) and swine anti-rabbit (DAKO) secondary antibodies, and immunoreactivity detected with Vectastain ABC (avidin-biotin) kit (Vector) and diaminobenzidine as a chromogen.
Thirty non-overlapping images were captured, on three consecutive sections, through each region of interest. All RGB images were captured via a live video camera (JVC, 3CCD, KY-F55B), mounted onto a Zeiss Axioplan microscope using a ×40 objective and saved as JPEGs. All parameters including lamp intensity, video camera set-up and calibration were maintained constant throughout image capturing. Images were subsequently analysed using ImageJ analysis software (NIH), using an appropriate threshold that selected the foreground immunoreactivity above background. This threshold was then applied as a constant to all subsequent images analysed per batch of animals and reagent used to determine the specific area of immunoreactivity for each antigen in each region. This analysis was performed blind to genotype. Data were plotted graphically as the mean percentage area of immunoreactivity per field±s.e.m. for each region.

Cln3^Δex7-8 mice [2] = experiment: Life span assessment, oral trehalose; format: in vivo, mouse
Method: Cln3^Δex7-8 mice (stock no. 004685; Cln3^tm1.1Mem/J; CD-1 background)^32 were obtained from the Jackson Laboratory. Control (CD-1) and Cln3^Δex7-8 mice were housed 3-4 per cage in a room with a 12-h light/12-h dark cycle. Food and water were provided ad libitum. All mice used in this study were analyzed at 8 and 12 months of age and were littermates produced by crossing heterozygous Cln3^Δex7-8 mice. Only males were used for this analysis. Investigators were blinded when analyzing the data, and no randomization was necessary. No data were excluded from this study.
Trehalose (Swanson) was dissolved in drinking water to a final concentration of 2% and changed twice a week. Trehalose-containing water was given to Cln3^Δex7-8 and WT mice by spontaneous oral administration starting at 21 days of age and continuing until the day the mice died naturally (life span assessment) or were sacrificed for other studies.

In the case of OC[C@H]1O[C@H](O[C@H]2O[C@H](CO)[C@@H](O)[C@H](O)[C@H]2O)[C@H](O)[C@@H](O)[C@@H]1O [trehalose, a-D-glucopyranosyl a-D-glucopyranoside], the Akt activity (Akt) is reported as “inhibited Akt activity”, the “progressive neuroinflammation (GFAP and CD68 immunoreactivity)” value (Cln3^Δex7-8 mice [1]; S1BF and VPM/VPL, 7 and 12 months of age) is reported as “mitigated” and the “decrease of GFAP immunoreactivity” value (Cln3^Δex7-8 mice [1]; S1BF region) is reported as 43%. The “decrease of GFAP immunoreactivity” value (Cln3^Δex7-8 mice [1]; VPM/VPL region) was 67%, the median survival (Cln3^Δex7-8 mice [2]; Cln3^Δex7-8 mice, 2% trehalose in drinking water from 21 days of age, untreated 454 days) was 522 days and the maximum life span (Cln3^Δex7-8 mice [2]; Cln3^Δex7-8 mice, oral trehalose, untreated 544 days) was 699 days. For the same compound, the “increase of maximum life span” value (Cln3^Δex7-8 mice [2]; treated vs untreated Cln3^Δex7-8 mice) was 28% and the “increase of median survival” value (Cln3^Δex7-8 mice [2]; treated vs untreated Cln3^Δex7-8 mice, log-rank P=0.00566) was 15%.
